The text below walks through data of patent US7408039B2, “Kits for treatment of hematologic disorders” (The General Hospital Corporation, priority 1997, dated 2008).

Each structure is given as a SMILES string. Bounds are passed on as bounds.

In data set [1] the test system is refractory non-Hodgkin's lymphoma. Conditions: five patients; Cy 50 mg/kg daily x4.
Excerpt: Median patient age was 30 (range 20-45) years. All patients had disease progression during salvage chemotherapy or radiation therapy.
For data set [2] the following is noted: cited from earlier work.

Turning to `O=P1(N(CCCl)CCCl)NCCCO1` (centres unmarked) [cyclophosphamide], in data set [1], the “patients with reversible Cy cardiotoxicity” value was determined as 1 n. Further, the post-chemotherapy hematopoietic recovery entry in data set [2] (200 mg/kg, expected, following drug administration) is “approximately 2 weeks”. For the same compound, in data set [2] (24-72 hours following cyclophosphamide), the “patients developing diffuse maculopapular rash” value was 10-20%. In addition, the “patients with some hematuria” value in data set [2] (at this dose level (50 mg/kg x 4)) is recorded as “Approximately 50%”. Besides, in data set [2] (cyclophosphamide 50 mg/kg on days -6 to -3), the “incidence of hemorrhagic cystitis” value was 20%. For the same compound, the myeloablation result in data set [2] (dose of 200 mg/kg) was “not myeloablative”. Besides, the “time for rash to resolve” value in data set [2] (in vivo) is 24 to 48 h. Further, the “total dose at which fatal cardiac failure due to hemorrhagic necrosis can occur” value in data set [2] (total dose (7.6 grams/m^2)) was ≥ 200 mg/kg.
